Columns and labels:
[1] = tested on: Streptococcus pneumoniae ATCC 49619; assay: disk diffusion assay; format: cell-based; details: 10 micrograms per disk; ciprofloxacin 5, vancomycin 30 micrograms per disk; MHA with 5% dsb. and 5% CO2
Bacillus cereus 4342 = assay: microbroth dilution MIC; format: cell-based
GISA 700699 = assay: microbroth dilution MIC
Vibrio fischeri PIC 345 = assay: disk diffusion assay; format: cell-based; details: 10 micrograms per disk; ciprofloxacin 5, vancomycin 30 micrograms per disk; 35° C.
[2] = tested on: Candida glabrata ATCC 2001; assay: disk diffusion assay; format: cell-based; details: 10 micrograms per disk; 35° C. Further: key: R = resistant.
[3] = tested on: Streptococcus pneumoniae 49619; assay: microbroth dilution MIC; format: cell-based
Bacillus subtilis = assay: microbroth dilution MIC
Aspergillus fumigatus = assay: microbroth dilution MIC
E. faecium 49624 = assay: microbroth dilution MIC; format: cell-based, Enterococcus faecium
[4] = tested on: Escherichia coli ATCC 25922; assay: disk diffusion assay; format: cell-based; details: 10 micrograms per disk; penicillin G 10 units per disk; 35° C. Further: key: R = resistant.
S. aureus ATCC 6583P = assay: MIC with and without double stranded DNA; format: cell-based, Staphylococcus aureus
S. aureus 29213 = assay: microbroth dilution MIC; format: cell-based, Staphylococcus aureus
[5] = tested on: Enterococcus faecalis ATCC 51299 (VRE); assay: microbroth dilution MIC; format: cell-based; details: for MIC Enterococcus faecalis ATCC 51299: resistant to vancomycin, first listing in Table 4; for MIC E. faecalis VRE 51299: third listing in Table 4
[6] = tested on: Enterococcus faecalis ATCC 51299; assay: disk diffusion assay; format: cell-based; details: 10 micrograms per disk; ciprofloxacin 5, vancomycin 30 micrograms per disk; 35° C.
[7] = tested on: Candida albicans ATCC 90028; assay: disk diffusion assay; format: cell-based; details: 10 micrograms per disk; 35° C. Further: key: R = resistant.
S. epidermis 12228 = assay: microbroth dilution MIC; format: cell-based, Staphylococcus epidermidis
[8] = tested on: Enterococcus faecium ATCC 49624; assay: disk diffusion assay; format: cell-based; details: 10 micrograms per disk; ciprofloxacin 5, vancomycin 30 micrograms per disk; 35° C.
brine shrimp = brine shrimp assays; details: preliminary assays
B. subtilis 1A757 = assay: microbe, parasite or virus in culture; format: cell-based, Bacillus subtilis; details: for increase of MICs when DNA was added: Bacillus subtilis and Staphylococcus aureus, 20 micrograms per well sheared salmon sperm DNA
[9] = tested on: Streptococcus pneumoniae 700676; assay: microbroth dilution MIC
Pseudomonas syringae = assay: microbroth dilution MIC, plant associated microorganisms; format: cell-based; details: PD broth
Procedure: (§1) Incubation was for 48 hours at 23° C. A plant pathogenic strain of Pseudomonas syringae was also tested using the same PD broth medium and with concentrations of colony forming units as given above. The organisms were obtained from the Montana State University plant pathogen culture collection administered by Dr. […] The relative activities against plant pathogenic fungi ranged from a few tenths of a microgram up to thirty micrograms. Table 2 provides the results of tests of inhibitory activity of the munumbicins against various plant-pathogenic fungi and one pathogenic bacterium. The data are reported as MIC values in micrograms/ml.

Pythium ultimum = assay: as above; format: cell-based; details: PD broth, 48 hours at 23° C.
Procedure: as §1

Geotrichum candidum = assay: as above; format: cell-based; details: PD broth, 48 hours at 23° C.
Procedure: as §1

Sclerotinia sclerotiorum = assay: as above; format: cell-based; details: PD broth, 48 hours at 23° C.
Procedure: as §1

Rhizoctonia solani = assay: as above; format: cell-based; details: PD broth, 48 hours at 23° C.
Procedure: as §1

Phytophthora cinnamomi = assay: as above; format: cell-based; details: PD broth, 48 hours at 23° C.
Procedure: as §1

[10] = tested on: Staphylococccus aureus 27734; assay: microbroth dilution MIC; format: cell-based, Staphylococcus aureus
[11] = tested on: Streptococcus pneumoniae 700674; assay: microbroth dilution MIC
[12] = tested on: Enterococcus faecium ATCC 51559; assay: disk diffusion assay; format: cell-based; details: 10 micrograms per disk; ciprofloxacin 5, vancomycin 30 micrograms per disk; 35° C.
[13] = tested on: Candida albicans ATCC 24433; assay: disk diffusion assay; format: cell-based; details: 10 micrograms per disk; 35° C. Further: key: R = resistant.
[14] = tested on: Staphylococcus aureus ATCC 33591 (MRSA); assay: microbroth dilution MIC; format: cell-based; details: for MIC MRSA 33591: second listing in Table 4
[15] = tested on: Pseudomonas aeruginosa ATCC 27853; assay: disk diffusion assay; format: cell-based; details: 10 micrograms per disk; ciprofloxacin 5, vancomycin 30 micrograms per disk; 35° C. Further: key: R = resistant.
S. epidermis ATCC 12228 = assay: disk diffusion assay; format: cell-based, Staphylococcus epidermidis; details: 10 micrograms per disk; 35° C.
[16] = tested on: Shigella dysenteriae ATCC 11835; assay: disk diffusion assay; format: cell-based; details: 10 micrograms per disk; 35° C.
Cryptococcus neoformans = assay: microbroth dilution MIC
[17] = tested on: Candida parasilosis ATCC 22019; assay: disk diffusion assay; format: cell-based, Candida parapsilosis; details: 10 micrograms per disk; 35° C. Further: key: R = resistant.
[18] = tested on: Staphylococcus aureus ATCC 29213; assay: disk diffusion assay; format: cell-based; details: 10 micrograms per disk; ciprofloxacin 5, vancomycin 30 micrograms per disk; 35° C.
[19] = tested on: Listeria monocytogenes 19114; assay: microbroth dilution MIC; format: cell-based
[20] = tested on: Listeria monocytogenes 19115; assay: microbroth dilution MIC; format: cell-based
[21] = tested on: Candida parasdosis ATCC 90018; assay: disk diffusion assay; format: cell-based, Candida parapsilosis; details: 10 micrograms per disk; 35° C. Further: key: R = resistant.
[22] = DNA +, 20 micrograms per well of sheared salmon sperm DNA

munumbicin B
diameter of the zone of inhibition, Streptococcus pneumoniae ATCC 49619 [1]: 17 mm
MIC Bacillus cereus 4342 (Bacillus cereus 4342): 0.5 micrograms/ml
MIC GISA 700699 (GISA 700699): 2 micrograms/ml
diameter of the zone of inhibition, Vibrio fischeri PIC 345 (Vibrio fischeri PIC 345): 16 mm
diameter of the zone of inhibition, Candida glabrata ATCC 2001 [2]: R
MIC Streptococcus pneumoniae 49619 [3]: 0.5 micrograms/ml
MIC Bacillus subtilis (Bacillus subtilis; first listing in Table 4): 8 micrograms/ml
MIC Bacillus subtilis (Bacillus subtilis; second listing in Table 4): 2 micrograms/ml
MIC Aspergillus fumigatus (Aspergillus fumigatus): 20 micrograms/ml
MIC E. faecium 49624 (E. faecium 49624): 0.5 micrograms/ml
diameter of the zone of inhibition, Escherichia coli ATCC 25922 [4]: R
MIC S. aureus ATCC 6583P (S. aureus ATCC 6583P; [22]): >32 micrograms/ml
MIC S. aureus ATCC 6583P (S. aureus ATCC 6583P; DNA −): 2 micrograms/ml
MIC S. aureus 29213 (S. aureus 29213): 0.5 micrograms/ml
MIC Enterococcus faecalis ATCC 51299 [5]: 12.5 micrograms/ml
MIC E. faecalis 51299 ([5]; second listing in Table 4): 8 micrograms/ml
MIC E. faecalis VRE 51299 [5]: 0.5 micrograms/ml
diameter of the zone of inhibition, Enterococcus faecalis ATCC 51299 [6]: 23 mm
diameter of the zone of inhibition, Candida albicans ATCC 90028 [7]: R
MIC S. epidermis 12228 (S. epidermis 12228): 1 micrograms/ml
diameter of the zone of inhibition, Enterococcus faecium ATCC 49624 [8]: 21 mm
LC50 brine shrimp (brine shrimp): 8.2 micrograms/ml
increase of MICs when DNA was added (B. subtilis 1A757): affected
MIC B. subtilis 1A757 (B. subtilis 1A757; [22]): >32 micrograms/ml
1×MIC against Bacillus subtilis (B. subtilis 1A757; concentration used in macromolecular synthesis assay): 2 micrograms/ml
MIC Streptococcus pneumoniae 700676 [9]: 0.5 micrograms/ml
MIC Pseudomonas syringae (Pseudomonas syringae): 2.0 micrograms/ml
MIC Pythium ultimum (Pythium ultimum): 0.2 micrograms/ml
MIC Geotrichum candidum (Geotrichum candidum): 31.2 micrograms/ml
MIC Sclerotinia sclerotiorum (Sclerotinia sclerotiorum): 0.20 micrograms/ml
MIC Rhizoctonia solani (Rhizoctonia solani): 8.0 micrograms/ml
MIC Phytophthora cinnamomi (Phytophthora cinnamomi): 6.2 micrograms/ml
MIC Staphylococccus aureus 27734 [10]: 0.5 micrograms/ml
MIC Streptococcus pneumoniae 700674 [11]: 0.5 micrograms/ml
diameter of the zone of inhibition, Enterococcus faecium ATCC 51559 [12]: 26 mm
diameter of the zone of inhibition, Candida albicans ATCC 24433 [13]: R
MIC Staphylococcus aureus ATCC 33591 ([14]; methicillin resistant strain, first listing in Table 4): 2.5 micrograms/ml
MIC MRSA 33591 [14]: 0.5 micrograms/ml
diameter of the zone of inhibition, Pseudomonas aeruginosa ATCC 27853 [15]: R
diameter of the zone of inhibition, S. epidermis ATCC 12228 (S. epidermis ATCC 12228): 21 mm
diameter of the zone of inhibition, Shigella dysenteriae ATCC 11835 [16]: R
MIC Cryptococcus neoformans (Cryptococcus neoformans): 10 micrograms/ml
diameter of the zone of inhibition, Candida parasilosis ATCC 22019 [17]: R
diameter of the zone of inhibition, Staphylococcus aureus ATCC 29213 [18]: 15 mm
MIC Listeria monocytogenes 19114 [19]: 4 micrograms/ml
MIC Listeria monocytogenes 19115 [20]: 4 micrograms/ml
diameter of the zone of inhibition, Candida parasdosis ATCC 90018 [21]: R

munumbicin C
diameter of the zone of inhibition, Streptococcus pneumoniae ATCC 49619 [1]: 7 mm
MIC Bacillus cereus 4342 (Bacillus cereus 4342): 0.25 micrograms/ml
MIC GISA 700699 (GISA 700699): 2 micrograms/ml
diameter of the zone of inhibition, Vibrio fischeri PIC 345 (Vibrio fischeri PIC 345): 9 mm
diameter of the zone of inhibition, Candida glabrata ATCC 2001 [2]: R
MIC Streptococcus pneumoniae 49619 [3]: 0.125 micrograms/ml
MIC Bacillus subtilis (Bacillus subtilis; first listing in Table 4): >8 micrograms/ml
MIC Bacillus subtilis (Bacillus subtilis; second listing in Table 4): 0.25 micrograms/ml
MIC Aspergillus fumigatus (Aspergillus fumigatus): 20 micrograms/ml
MIC E. faecium 49624 (E. faecium 49624): 0.5 micrograms/ml
diameter of the zone of inhibition, Escherichia coli ATCC 25922 [4]: R
MIC S. aureus ATCC 6583P (S. aureus ATCC 6583P; [22]): >32 micrograms/ml
MIC S. aureus ATCC 6583P (S. aureus ATCC 6583P; DNA −): 0.5 micrograms/ml
MIC S. aureus 29213 (S. aureus 29213): 1 micrograms/ml
MIC Enterococcus faecalis ATCC 51299 [5]: 16 micrograms/ml
MIC E. faecalis VRE 51299 [5]: 0.5 micrograms/ml
diameter of the zone of inhibition, Enterococcus faecalis ATCC 51299 [6]: 22 mm
diameter of the zone of inhibition, Candida albicans ATCC 90028 [7]: R
MIC S. epidermis 12228 (S. epidermis 12228): 2 micrograms/ml
diameter of the zone of inhibition, Enterococcus faecium ATCC 49624 [8]: 23 mm
LC50 brine shrimp (brine shrimp): 2.0 micrograms/ml
increase of MICs when DNA was added (B. subtilis 1A757): affected
MIC B. subtilis 1A757 (B. subtilis 1A757; [22]): >32 micrograms/ml
MIC B. subtilis 1A757 (B. subtilis 1A757; DNA −): 0.5 micrograms/ml
MIC Streptococcus pneumoniae 700676 [9]: 0.125 micrograms/ml
MIC Pseudomonas syringae (Pseudomonas syringae): 15.6 micrograms/ml
MIC Pythium ultimum (Pythium ultimum): 4.0 micrograms/ml
MIC Geotrichum candidum (Geotrichum candidum): 15.6 micrograms/ml
MIC Sclerotinia sclerotiorum (Sclerotinia sclerotiorum): 8.0 micrograms/ml
MIC Rhizoctonia solani (Rhizoctonia solani): 1.5 micrograms/ml
MIC Phytophthora cinnamomi (Phytophthora cinnamomi): 1.5 micrograms/ml
MIC Staphylococccus aureus 27734 [10]: 0.5 micrograms/ml
MIC Streptococcus pneumoniae 700674 [11]: 0.125 micrograms/ml
diameter of the zone of inhibition, Enterococcus faecium ATCC 51559 [12]: 28 mm
diameter of the zone of inhibition, Candida albicans ATCC 24433 [13]: R
MIC MRSA 33591 [14]: 0.5 micrograms/ml
diameter of the zone of inhibition, Pseudomonas aeruginosa ATCC 27853 [15]: R
diameter of the zone of inhibition, S. epidermis ATCC 12228 (S. epidermis ATCC 12228): R
diameter of the zone of inhibition, Shigella dysenteriae ATCC 11835 [16]: R
MIC Cryptococcus neoformans (Cryptococcus neoformans): 10 micrograms/ml
diameter of the zone of inhibition, Candida parasilosis ATCC 22019 [17]: R
diameter of the zone of inhibition, Staphylococcus aureus ATCC 29213 [18]: R
MIC Listeria monocytogenes 19114 [19]: 4 micrograms/ml
MIC Listeria monocytogenes 19115 [20]: 2 micrograms/ml
diameter of the zone of inhibition, Candida parasdosis ATCC 90018 [21]: R
